From patent US20120270300A1, “PRODUCTION OF RECOMBINANT FACTOR IX IN A HUMAN HEPATOCYTE CELL LINE” (Universite Claude Bernard Lyon I, priority 2009, published 2012)
Like-named read-outs stand apart in the source and are kept apart here.

Legend:
[1] = tested on: Huh7 cells transiently transfected with pcDNAFIXwt; test: Effects of protein degradation inhibitors on the intracellular level of FIXwt (ELISA on lysates); assay type: cell-based, human; details: for Intracellular FIX level (mean ± SE): 6 h treatment, 36 h after transfection, % relative to nontreated cell lysates, NH4Cl 50 mM/l, beta-lactone 10 μM/l, brefeldin A 10 μg/ml
Method: Huh7 cells (1×10^6 cells/dish) were transiently transfected at 80% confluence in 60 mm culture dishes. Thirty-six hours after transfection, the cells were incubated in FBS-free medium containing 10 μM/l of clasto-lactacystin β-lactone (Calbiochem, France Biochem, Meudon, France), 50 mM/l of ammonium chloride, or 10 μg/ml of brefeldin A (Sigma Aldrich). The medium was renewed every 2 hours.
The cell lysates were harvested 6 h later and prepared in 120 μl of cold lysis buffer. The FIX antigen concentration was quantified on the lysates by means of an ELISA assay. The results are expressed as percentage of values obtained relative to the nontreated control lysates. The comparisons were carried out by application of Fisher's test using the Stat View® software.
Thirty-six hours after transfection, the inhibitors were added to the culture medium and left for 6 h. The intracellular FIX concentrations were measured after treatment by means of an ELISA assay (the values are expressed as % of FIX relative to the values obtained in the nontreated cell lysates). The results are brought together in table 1 below and correspond to three independent transfections.

[2] = tested on: factor IX-deficient plasma; test: Specific coagulation activity, one-step chronometric aPTT test, related back to Benefix (aPTT/ELISA); assay type: biochemical
Method: The term “biologically active FIX” is intended to mean a factor IX of which the specific coagulation activity is at least 100%. The recombinant FIX secreted into the culture medium of the present invention preferably has a specific coagulation activity of from 150 to 200%, preferably from 170 to 200%. The specific coagulation activity of the factor IX is determined by means of the technique termed chronometric time technique by measuring the partial thromboplastin time (PTT) or activated partial thromboplastin time (aPTT) which is a semi-overall test of blood coagulation which uses a coagulometer. The test used is detailed in the examples. In this test, Benefix® has a specific activity of 100%.
The specific coagulation activity of the factor IX is determined using the technique termed chronometric time technique by measuring the partial thromboplastin time (PTT) or activated partial thromboplastin time (aPTT) according to K. J. Smith et al., Blood, 72, 1269-1277 (1988), which is a semi-overall one-step blood coagulation test with an MDA II® or else Destiny Max coagulometer (Trinity Biotech, Dublin, Ireland). For this, fifty microliters of sample are diluted to 1/10th in imidazole buffer (Trinity Biotech, Bray, Ireland). […] The coagulation time is measured by means of a coagulometer using an MDA II® or else Destiny Max automated device (Trinity Biotech, Bray, Ireland). […]

[3] = versus plasma FIX (Mononine); cited from earlier work
[4] = hemophilia B patients, versus plasma FIX (Mononine); cited from earlier work
[5] = tested on: factor IX-deficient plasma; details: FIX from HepG2 cells with viral vectors, published by Chen et al.; cited from earlier work
[6] = tested on: factor IX-deficient plasma; test: aPTT coagulation test under the conditions of Chen et al., related to standard plasma values, converted into ng/ml; assay type: biochemical; details: Huh7-CD4 clone
Method: A comparative study with respect to the works of Chen et al., 1997, was carried out. In these experiments, 1×10^6 cells of the Huh7-CD4 clone were seeded into 6-well plates. The following day, the medium was renewed and left in the presence of the producer cells for 24 hours. The FIX concentrations in this medium are determined using the Asserachrom IX:Ag ELISA kit (Diagnostica Stago). The activity of the FIX secreted into this medium is determined in a one-step coagulation test (aPTT) with an MDA II or else Destiny Max coagulometer (Trinity Biotech, Dublin, Ireland) as described above. The activity of the factor IX is determined from standard plasma values (Standard Human Plasma, Siemens Marburg, Germany, calibrated against a WHO—World Health Organization—standard) by means of a log-log curve. […] The specific activity of the FIX resulting from the Huh7-CD4 clone is calculated according to the ratio between the coagulant activity read for the sample, related back to the standard plasma values, and its FIX concentration (aPTT/ELISA).
Moreover, the specific activity of the FIX produced by the Huh7-CD4 line was determined according to the conditions determined by Chen et al. The ratio between the concentrations measured by the aPTT method (ng/ml) and measured by ELISA (ng/ml) was calculated on the basis of five different assays. […]

CC(C)[C@H](O)[C@@]12NC(=O)[C@H](C)[C@@H]1OC2=O [Beta-lactone, clasto-lactacystin β-lactone]
Intracellular FIX level (mean ± SE) [1]: 50.1% +/− 25.8
Intracellular FIX level (mean ± SE) ([1]; listed as clasto-lactacystin β-lactone): no significant effect

C[C@H]1CCC/C=C/[C@@H]2C[C@H](O)C[C@H]2[C@H](O)/C=C/C(=O)O1 [Brefeldin A, brefeldin A]
Intracellular FIX level (mean ± SE) [1]: 254.4% +/− 21.4
increase of intracellular FIXwt level compared with that without inhibitor ([1]; after incubation with brefeldin A, p=0.005): 370%

Benefix: marketed recombinant FIX (Wyeth) synthesized by CHO cells stably transfected with the FIX cDNA
specific activity relative to that of Benefix ([2]; culture supernatants of transiently transfected Huh7 cells, 36 h after transfection, Benefix = 100%): 100%
specific activity compared with FIX of plasma origin [3]: equivalent
half-life in the blood stream compared with plasma FIX [4]: similar

FIX/GCF9SN-MPSV: FIX produced with a viral vector in the HepG2 hepatocyte cell line by Chen et al., 1997
% specific activity aPTT/ELISA [5]: 73.5 +/− 19.7%
aPTT [5]: 55 ± 15 ng/mL

FIX/GCNCF9: FIX produced with a viral vector in the HepG2 hepatocyte cell line by Chen et al., 1997
% specific activity aPTT/ELISA [5]: 93.7 +/− 11%
aPTT [5]: 120 ± 14 ng/mL

FIXwt: recombinant human factor IX expressed in the human hepatocyte cell line Huh7 (transient, or stable clone Huh7-CD4) and secreted into the supernatant
specific activity improved by a factor ([2]; transiently transfected Huh7 cells, versus Benefix): 1.7
aPTT ([6]; 24 hours/10^6 cells, 5 μg/ml of FIX = 100%): 740 ± 59 ng/mL
% specific activity aPTT/ELISA ([6]; related to standard plasma, five assays): 161 +/− 37%
